Assay results taken from patent US20250114374A1, “BCL-2 INHIBITORS” (Newave Pharmaceutical Inc., priority 2021, published 2025).
Counter-ions that a name gives are not always drawn.

The compounds below were run on RS4; 11 with G101V mutation (assay: In vitro anti-proliferation assay (ATPlite luminescence) in BCL-2-dependent ALL cell line RS4;11 with G101V mutation). Settings: cellular anti-proliferative IC50, about 72 hours, medium with 10% FBS, ATPlite; hydrochloride; read-out: RS411-G101V IC50.
Format: cell-based
Experimental: Cell antiproliferation was assayed by PerkinElmer ATPlite™ Luminescence Assay System. Briefly, the various test cancer cell lines were plated at a density of about 1×10^4 cells per well in Costar 96-well plates, and were incubated with different concentrations of compounds for about 72 hours in medium supplemented with 10% FBS. One lyophilized substrate solution vial was then reconstituted by adding 5 mL of substrate buffer solution, and was agitated gently until the solution was homogeneous. About 50 μL of mammalian cell lysis solution was added to 100 μL of cell suspension per well of a microplate, and the plate was shaken for about five minutes in an orbital shaker at ˜700 rpm. This procedure was used to lyse the cells and to stabilize the ATP. Next, 50 μL substrate solution was added to the wells and microplate was shaken for five minutes in an orbital shaker at ˜700 rpm. Finally, the luminescence was measured by a PerkinElmer TopCount® Microplate Scintillation Counter. Such assays, carried out with a range of doses of test compounds, allowed the determination of the cellular anti-antiproliferative IC50 of the compounds of the present invention.
The following table lists the IC50 values of another study for certain compounds of the invention.

For `Cc1ccccc1[C@@H]1CN(C2CCC(C)(O)CC2)CCN1C1CC2(CCN(c3ccc(C(=O)NS(=O)(=O)c4ccc(NCC5CCC(C)(O)CC5)c([N+](=O)[O-])c4)c(N4c5cc6cc[nH]c6nc5O[C@H]5COCC[C@@H]54)c3)CC2)C1` (stereo partly drawn) [Example 113, 2-[(3R,8S)-2,5-dioxa-9,15,17-triazatetracyclo[8.7.0.0^{3,8}.0^{12,16}]heptadeca-1(10),11,13,16-tetraen-9-yl]-4-{2-[(2R)-2-(2-methylphenyl)-4-[(1s,4s)-4-hydroxy-4-methylcyclohexyl]piperazin-1-yl]-7-azaspiro[3.5]nonan-7-yl}-N-[3-nitro-4-({[(1r,4r)-4-hydroxy-4-methylcyclohexyl]methyl}amino)benzenesulfonyl]benzamide hydrochloride], which IC50 is on record?
Its IC50 is 8.2 nM.

Same assay, conditions: cellular anti-proliferative IC50, about 72 hours, medium with 10% FBS, ATPlite; read-out: RS411-G101V IC50

Which IC50 does the source give for `COc1cc(CN2CCN(C3CC4(CCN(c5ccc(C(=O)NS(=O)(=O)c6ccc(NCC7CCC(C)(O)CC7)c([N+](=O)[O-])c6)c(N6c7cc8cc[nH]c8nc7O[C@H]7COCC[C@@H]76)c5)CC4)C3)[C@@H](c3ccccc3OC(C)C)C2)cnc1N1CCOC[C@H]1C` (stereo partly drawn) [Example 111, 2-[(3R,8S)-2,5-dioxa-9,15,17-triazatetracyclo[8.7.0.0^{3,8}.0^{12,16}]heptadeca-1(10),11,13,16-tetraen-9-yl]-4-{2-[(2S)-2-(2-isopropoxyphenyl)-4-({5-methoxy-6-[(3R)-3-methylmorpholin-4-yl]pyridin-3-yl}methyl)piperazin-1-yl]-7-azaspiro[3.5]nonan-7-yl}-N-[3-nitro-4-({[(1r,4r)-4-hydroxy-4-methylcyclohexyl]methyl}amino)benzenesulfonyl]benzamide] here?
The IC50 was 10.7 nM.

Which IC50 does the source give for `Cc1ccccc1[C@@H]1CN(C2CCC(C)(O)CC2)CCN1C1CC2(CCN(c3ccc(C(=O)NS(=O)(=O)c4ccc(NCC5CCC(C)(O)CC5)c([N+](=O)[O-])c4)c(N4c5cc6cc[nH]c6nc5O[C@H]5COCC[C@@H]54)c3)CC2)C1` (stereo partly drawn) [Example 112, 2-[(3R,8S)-2,5-dioxa-9,15,17-triazatetracyclo[8.7.0.0^{3,8}.0^{12,16}]heptadeca-1(10),11,13,16-tetraen-9-yl]-4-{2-[(2R)-2-(2-methylphenyl)-4-[(1r,4r)-4-hydroxy-4-methylcyclohexyl]piperazin-1-yl]-7-azaspiro[3.5]nonan-7-yl}-N-[3-nitro-4-({[(1r,4r)-4-hydroxy-4-methylcyclohexyl]methyl}amino)benzenesulfonyl]benzamide] here?
The IC50 was 10.9 nM.

With `Cc1ccccc1[C@@H]1CN(C2CCOCC2)CCN1C1CC2(CCN(c3ccc(C(=O)NS(=O)(=O)c4ccc(NCC5CCC(C)(O)CC5)c([N+](=O)[O-])c4)c(N4c5cc6cc[nH]c6nc5O[C@H]5COCC[C@@H]54)c3)CC2)C1` (stereo partly drawn) [Example 114, 2-[(3R,8S)-2,5-dioxa-9,15,17-triazatetracyclo[8.7.0.0^{3,8}.0^{12,16}]heptadeca-1(10),11,13,16-tetraen-9-yl]-4-{2-[(2R)-2-(2-methylphenyl)-4-(oxan-4-yl)piperazin-1-yl]-7-azaspiro[3.5]nonan-7-yl}-N-[3-nitro-4-({[(1r,4r)-4-hydroxy-4-methylcyclohexyl]methyl}amino)benzenesulfonyl]benzamide] as the compound, how does the IC50 read?
Its IC50 is 11.8 nM.

`CC(C)Oc1ccccc1[C@H]1CN(Cc2ccc(F)c(F)c2)CCN1C1CC2(CCN(c3ccc(C(=O)NS(=O)(=O)c4ccc(NCC5CCC(C)(O)CC5)c([N+](=O)[O-])c4)c(N4c5cc6cc[nH]c6nc5O[C@H]5COCC[C@@H]54)c3)CC2)C1` (stereo partly drawn) [Example 115, 4-{2-[(2S)-4-[(3,4-difluorophenyl)methyl]-2-(2-isopropoxyphenyl)piperazin-1-yl]-7-azaspiro[3.5]nonan-7-yl}-2-[(3R,8S)-2,5-dioxa-9,15,17-triazatetracyclo[8.7.0.0^{3,8}.0^{12,16}]heptadeca-1(10),11,13,16-tetraen-9-yl]-N-[3-nitro-4-({[(1r,4r)-4-hydroxy-4-methylcyclohexyl]methyl}amino)benzenesulfonyl]benzamide] was tested. Which IC50 did it give?
Its IC50 is 27.3 nM.

With `CC(C)Oc1ccccc1[C@H]1CN(Cc2ccc(N3CCOC[C@H]3C)cc2)CCN1C1CC2(CCN(c3ccc(C(=O)NS(=O)(=O)c4ccc(NCC5CCC(C)(O)CC5)c([N+](=O)[O-])c4)c(N4c5cc6cc[nH]c6nc5O[C@H]5COCC[C@@H]54)c3)CC2)C1` (stereo partly drawn) [Example 116, 2-[(3R,8S)-2,5-dioxa-9,15,17-triazatetracyclo[8.7.0.0^{3,8}.0^{12,16}]heptadeca-1(10),11,13,16-tetraen-9-yl]-4-{2-[(2S)-2-(2-isopropoxyphenyl)-4-({4-[(3R)-3-methylmorpholin-4-yl]phenyl}methyl)piperazin-1-yl]-7-azaspiro[3.5]nonan-7-yl}-N-[3-nitro-4-({[(1r,4r)-4-hydroxy-4-methylcyclohexyl]methyl}amino)benzenesulfonyl]benzamide] as the compound, how does the IC50 read?
The IC50 was 28.7 nM.

With `CC(C)Oc1ccccc1[C@H]1CN(Cc2cnc3c(c2)OCCO3)CCN1C1CC2(CCN(c3ccc(C(=O)NS(=O)(=O)c4ccc(NCC5CCC(C)(O)CC5)c([N+](=O)[O-])c4)c(N4c5cc6cc[nH]c6nc5O[C@H]5COCC[C@@H]54)c3)CC2)C1` (stereo partly drawn) [Example 117, 2-[(3R,8S)-2,5-dioxa-9,15,17-triazatetracyclo[8.7.0.0^{3,8}.0^{12,16}]heptadeca-1(10),11,13,16-tetraen-9-yl]-4-{2-[(2S)-4-{2H,3H-[1,4]dioxino[2,3-b]pyridin-7-ylmethyl}-2-(2-isopropoxyphenyl)piperazin-1-yl]-7-azaspiro[3.5]nonan-7-yl}-N-[3-nitro-4-({[(1r,4r)-4-hydroxy-4-methylcyclohexyl]methyl}amino)benzenesulfonyl]benzamide] as the compound, how does the IC50 read?
Its IC50 is 13.2 nM.

For `COc1cc(CN2CCN(C3CC4(CCN(c5ccc(C(=O)NS(=O)(=O)c6ccc(NCC7CCC(C)(O)CC7)c([N+](=O)[O-])c6)c(N6c7cc8cc[nH]c8nc7O[C@H]7COCC[C@@H]76)c5)CC4)C3)[C@H](c3ccccc3C)C2)cnc1OC` (stereo partly drawn) [Example 118, 4-{2-[(2R)-4-[(5,6-dimethoxypyridin-3-yl)methyl]-2-(2-methylphenyl)piperazin-1-yl]-7-azaspiro[3.5]nonan-7-yl}-2-[(3R,8S)-2,5-dioxa-9,15,17-triazatetracyclo[8.7.0.0^{3,8}.0^{12,16}]heptadeca-1(10),11,13,16-tetraen-9-yl]-N-[3-nitro-4-({[(1r,4r)-4-hydroxy-4-methylcyclohexyl]methyl}amino)benzenesulfonyl]benzamide], which IC50 is on record?
Its IC50 is 4.4 nM.

How did the IC50 turn out when `COc1cc(CN2CCN(C3CC4(CCN(c5ccc(C(=O)NS(=O)(=O)c6ccc(NCC7CCC(C)(O)CC7)c([N+](=O)[O-])c6)c(N6c7cc8cc[nH]c8nc7O[C@H]7COCC[C@@H]76)c5)CC4)C3)[C@@H](c3ccccc3OC(C)C)C2)cnc1N1CCOCC1` (stereo partly drawn) [Example 119, N-((4-((((1r,4r)-4-hydroxy-4-methylcyclohexyl)methyl)amino)-3-nitrophenyl)sulfonyl)-4-(2-((S)-2-(2-isopropoxyphenyl)-4-((5-(methoxy-d3)-6-morpholinopyridin-3-yl)methyl)piperazin-1-yl)-7-azaspiro[3.5]nonan-7-yl)-2-((5aS,9aR)-6,7,9,9a-tetrahydro-1H-pyrano[3,4-b]pyrrolo[3′,2′:5,6]pyrido[3,2-e][1,4]oxazin-5(5aH)-yl)benzamide] was run?
The IC50 was 14.6 nM.

How did the IC50 turn out when `COc1cc(CN2CCN([C@@H]3CC4(CCN(c5ccc(C(=O)NS(=O)(=O)c6ccc(NCC7CCC(C)(O)CC7)c([N+](=O)[O-])c6)c(N6c7cc8cc[nH]c8nc7O[C@H]7COCC[C@@H]76)c5)CC4)[C@@H]3C)[C@@H](c3ccccc3OC(C)C)C2)cnc1N1CCOCC1` (stereo partly drawn) [Example 120, 2-[(3R,8S)-2,5-dioxa-9,15,17-triazatetracyclo[8.7.0.0^{3,8}.0^{12,16}]heptadeca-1(10),11,13,16-tetraen-9-yl]-4-[(1S,2R)-2-[(2S)-2-(2-isopropoxyphenyl)-4-{[5-methoxy-6-(morpholin-4-yl)pyridin-3-yl]methyl}piperazin-1-yl]-1-methyl-7-azaspiro[3.5]nonan-7-yl]-N-[3-nitro-4-({[(1r,4r)-4-hydroxy-4-methylcyclohexyl]methyl}amino)benzenesulfonyl]benzamide] was run?
Its IC50 is 147 nM.

`COc1cc(CN2CCN([C@@H]3CC4(CCN(c5ccc(C(=O)NS(=O)(=O)c6ccc(NCC7CCC(C)(O)CC7)c([N+](=O)[O-])c6)c(N6c7cc8cc[nH]c8nc7O[C@H]7COCC[C@@H]76)c5)CC4)[C@H]3C)[C@@H](c3ccccc3OC(C)C)C2)cnc1N1CCOCC1` (stereo partly drawn) [Example 121, 2-[(3R,8S)-2,5-dioxa-9,15,17-triazatetracyclo[8.7.0.0^{3,8}.0^{12,16}]heptadeca-1(10),11,13,16-tetraen-9-yl]-4-[(1R,2R)-2-[(2S)-2-(2-isopropoxyphenyl)-4-{[5-methoxy-6-(morpholin-4-yl)pyridin-3-yl]methyl}piperazin-1-yl]-1-methyl-7-azaspiro[3.5]nonan-7-yl]-N-[3-nitro-4-({[(1r,4r)-4-hydroxy-4-methylcyclohexyl]methyl}amino)benzenesulfonyl]benzamide] was tested. Which IC50 did it give?
Its IC50 is 47.9 nM.
